Test results reported in patent US20020095030A1, “FLIP GENES AND FLIP PROTEINS” (priority 1997, published 2002).
Peptide text beside a SMILES is read from it. * marks the point of attachment. Cbz = O=C(OCc1ccccc1)*; CH2F = FC*

Tested on: 293T-cells
Assay: Apoptosis by over-expression of TRAMP in 293T cells (Cell Death Detection ELISA)
Format: cell-based, human
Conditions: 25 μM in medium

## COC(=O)C[C@H](NC(=O)[C@H](C)NC(=O)[C@@H](NC(=O)OCc1ccccc1)C(C)C)C(=O)CF [z-VAD-fmk] (Cbz-Val-Ala-Asp(OMe)-CH2F)
  protection of TRAMP over expressing cells: 100%
